From US10464925B2, “Methods to induce targeted protein degradation through bifunctional molecules” (Dana-Farber Cancer Institute, Inc., priority 2015, dated 2019)
pEC50, pIC50: −log10 of the molar value. Where two headings read alike, the source gives them in different places.

Columns and labels:
MV4-11 = experiment: Analysis of apoptotic cells by Caspase Glo assay; format: cell-based; conditions: MV4-11, 4 or 8 hours treatment, assessed at 24 hours
BRD4 [1] = target: T1, BRD4 (Homo sapiens, UniProt O60885); experiment: Immunoblot for BRD4 in MV4-11 cells; format: cell-based
PLK1 = PLK1 (Homo sapiens, UniProt P53350); experiment: PLK1 IC50 (Table 4); format: biochemical
BRDT = BRDT (Homo sapiens, UniProt Q58F21); experiment: BRDT IC50 (Table 4); format: binding; conditions: for IC50: read-out: IC50 (nM) BRDT
NGP = experiment: Cell viability, ATPlite 72 hours; format: cell-based; conditions: read-out: IC50 (nM) NGP
MOLT4 = experiment: Cell viability, ATPlite 48 hours, MOLT4; format: cell-based; conditions: Homo sapiens, MOLT-4; MOLT4 cells
797 = experiment: Cell viability, 797 cells (Table 4); format: cell-based; conditions: read-out: IC50 (nM) 797
MV4; 11 = experiment: Cell viability, ATPlite 48 hours, MV4-11; format: cell-based; conditions: Homo sapiens, 11 cells
DND41 = experiment: Cell viability, ATPlite 48 hours, DND41; format: cell-based; conditions: DND41 cells
CUTL1 = experiment: Cell viability, ATPlite 48 hours, CUTLL1; format: cell-based; conditions: CUTL1 cells
[2] = target: T2, BRD4 adjoined to nanoluciferase (Nluc) (Homo sapiens, UniProt O60885+Q96SW2); experiment: BRD4 Dual Luciferase Assay; format: cell-based; conditions: for Emax: read-out: BRD4− Emax (percent remaining);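 as to all read-outs here: transduced reporter cells exposed to compound for 4 h, then Nluc and Fluc luminescence read, each normalized to DMSO controls and expressed as Nluc/Fluc ratio per well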
T2 construct: expressed in transfected cells

CRBN = target: T3, CRBN (Homo sapiens, UniProt Q96SW2); experiment: Intracellular CRBN Engagement Assay (dFKBP7 rescue); format: cell-based; conditions: competition with 80 nM dFKBP7, 3 hours; read-out: FKBP7 rescue (EC50)
T3 construct: endogenous in cells

BRD4 [3] = target: T1, BRD4; experiment: BRD4 Cell Western (BRD4 levels in 293T cells, LiCOR); format: cell-based; parameters: BRD4 levels in the cells after the dBET treatment; endogenous in cells
CRBN-DDB1 = target: T4, CRBN-DDB1 (Homo sapiens, UniProt Q96SW2); experiment: CRBN-DDB1 Ligand-Displacement AlphaScreen Assay (thalidomide competition); format: binding; conditions: biotin-thalidomide competition; read-out: THAL ALPHA (IC50);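 also: streptavidin donor and nickel chelate acceptor bead proximity signal after 30 min incubation, normalized with no-protein background as 0% and DMSO wells as 100% activity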
T4 construct: 6xHis (given for the complex); made in house; host or cells: Sf9 cells (Invitrogen), pFastBac

BRD4 [4] = target: T1, BRD4; experiment: BRD4 AlphaScreen; format: binding; parameters: […]; His tag (inferred from capture on Ni-coated acceptor beads); conditions: for pIC50: read-out: BRD4 Alpha (IC50); for IC50: read-out: IC50 (nM) BRD4
LRRK2 = LRRK2 (Homo sapiens, UniProt Q5S007); experiment: LRRK2 IC50 (Table 4); format: biochemical
FKBP12 (WT) = FKBP12 (WT) (Homo sapiens, UniProt P62942); experiment: FKBP12 (WT) Ligand-Displacement AlphaScreen Assay; format: binding; conditions: biotin-SLF displacement, read-out: IC50 (nM) FKBP
FKBP12 (36V) = FKBP12 (36V) (Homo sapiens, UniProt P62942, F37V); experiment: FKBP12 (36V) Ligand-Displacement AlphaScreen Assay; format: binding; conditions: biotin-SLF displacement, read-out: IC50 (nM) FKBP 36V
[5] = target: T5, fusion of FKBP12 to nanoluciferase (Homo sapiens, UniProt P62942+Q96SW2); experiment: FKBP Dual Luciferase Assay, wild-type 293FT, FKBP12; format: cell-based; conditions: 4 hours; for Dmax: read-out: Max Degradation (dual luciferase, %) FKBP
T5 construct: expressed in transfected cells

[6] = target: T6, fusion of mutant FKBP12 to nanoluciferase (Homo sapiens, UniProt P62942+Q96SW2, F37V); experiment: FKBP Dual Luciferase Assay, wild-type 293FT, mutant FKBP12 (36V); format: cell-based; conditions: 4 hours; read-out: Max Degradation (dual luciferase, %) FKBP 36V
T6 construct: expressed in transfected cells

[7] = read-out: BRD4 max degradation(%) Dual Luciferase

In the case of `Cc1sc2c(c1C)C(c1ccc(Cl)cc1)=N[C@@H](CC(=O)OC(C)(C)C)c1nnc(C)n1-2` [JQ1], the “induction of apoptosis after pulsed treatment and drug washout” value (MV4-11) was “did not yield a pronounced apoptotic response” and the “BRD4 degradation by treatment alone” value (BRD4 [1]) was “insufficient to induce BRD4 degradation”.
`CC[C@@H]1C(=O)N(C)c2cnc(Nc3ccc(C(=O)NCCCCNC(=O)COc4cccc5c4C(=O)N(C4CCC(=O)NC4=O)C5=O)cc3OC)nc2N1C1CCCC1` (some centres unmarked) [dBET2] showed an IC50 (PLK1) of 6.15 nM, an IC50 (BRDT) of 405 nM and an IC50 (NGP; NGP cells, Table 4) of 156 nM. The IC50 (MOLT4) was 192 nM, the IC50 797 was 113 nM and the IC50 (MV4; 11) was 6.3 nM. It also gave an IC50 (DND41) of 110 nM and an IC50 (CUTL1) of 81.2 nM.
`CC[C@@H]1C(=O)N(C)c2cnc(Nc3ccc(C(=O)NCCCOCCOCCOCCCNC(=O)COc4cccc5c4C(=O)N(C4CCC(=O)NC4=O)C5=O)cc3OC)nc2N1C1CCCC1` (some centres unmarked) [dBET10] showed an IC50 (PLK1) of 10.2 nM, an IC50 (BRDT) of 309 nM and an IC50 (NGP; NGP cells, Table 4) of 413 nM. The “Conc@Emax” value [2] was 50 µM, the Dmax ([2]; 4 hours, read-out: max degradation (dual luc)) was 25.3% and the Emax ([2]; BRD4 remaining at Emax) was 73.1%. It also gave a Dmax [2, 7] of 25%, a pEC50 (CRBN) of 5.09 and an IC50 (MOLT4) of 452 nM. It also gave a Dmax (BRD4 [3]; HEK-293T; read-out: BRD4 max degradation(%) Cell Western) of 20%, an IC50 797 of 163 nM and an IC50 (MV4; 11) of 28 nM. The pIC50 (CRBN-DDB1) was 7.90, the pIC50 (BRD4 [4]) was 7.08 and the IC50 (BRD4 [4]) was 83 nM. The IC50 (DND41) was 271 nM and the IC50 (CUTL1) was 152 nM.
`COc1cc(C(=O)NCCCCNC(=O)COc2cccc3c2C(=O)N(C2CCC(=O)NC2=O)C3=O)ccc1Nc1ncc2c(n1)N(C)c1ccccc1C(=O)N2C` (centres unmarked) [dBET11] showed an IC50 (BRDT) of 2900 nM, a pEC50 (CRBN) of 2.61 and an IC50 (LRRK2) of 7.3 nM. For the same compound, the IC50 797 was > 20000 nM, the IC50 (MV4; 11) was 3.38 nM and the pIC50 (CRBN-DDB1) was 7.60. It also gave a pIC50 (BRD4 [4]) of 6.02 and an IC50 (BRD4 [4]) of 958 nM.
`COc1cc(C(=O)NCCCOCCOCCOCCCNC(=O)COc2cccc3c2C(=O)N(C2CCC(=O)NC2=O)C3=O)ccc1Nc1ncc2c(n1)N(C)c1ccccc1C(=O)N2C` (centres unmarked) [dBET12] was tested, and the IC50 (BRDT) was 5870 nM, the pEC50 (CRBN) was 4.46 and the IC50 (LRRK2) was 32 nM. The IC50 797 was > 20000 nM, the IC50 (MV4; 11) was > 20000 nM and the pIC50 (CRBN-DDB1) was 7.62.
For `Cc1sc2c(c1C)C(c1ccc(Cl)cc1)=N[C@@H](CC(=O)NCCCCCCNC(=O)c1ccc3c(c1)C(=O)N(C1CCC(=O)NC1=O)C3=O)c1nnc(C)n1-2` (some centres unmarked) [dBET15], the pIC50 (BRDT) was 7.03, the IC50 (NGP; NGP) was > 20000 nM and the Dmax [2, 7] was 18%. It also gave an Emax [2] of 78.2%, a Dmax ([2]; read-out: max degradation (dual luc)) of 18.2% and an IC50 (MOLT4) of 6960 nM. The Dmax (BRD4 [3]; HEK-293T, read-out: BRD4 max degradation(%) Cell Western) was 24%, the IC50 797 was 1270 nM and the IC50 (MV4; 11) was 312 nM. For the same compound, the IC50 (DND41) was 10400 nM and the IC50 (CUTL1) was 6840 nM.
`CCC(C)(C)C(=O)C(=O)N1CCCC[C@H]1C(=O)O[C@H](CCc1ccc(OC)c(OC)c1)c1cccc(NC(=O)CCC(=O)NCCCCNC(=O)COc2cccc3c2C(=O)N(C2CCC(=O)NC2=O)C3=O)c1` (some centres unmarked) [dFKBP-1] gave an IC50 (FKBP12 (WT)) of 274 nM and an IC50 (FKBP12 (36V)) of 237 nM.
Compound `CCC(C)(C)C(=O)C(=O)N1CCC[C@H]1C(=O)O[C@H](CCc1ccc(OC)c(OC)c1)c1cccc(OCC(=O)NCCCCNC(=O)COc2cccc3c2C(=O)N(C2CCC(=O)NC2=O)C3=O)c1` (some centres unmarked) [dFKBP-3] has a Dmax [5] of 22%, an IC50 (FKBP12 (36V)) of 1200 nM and a Dmax [6] of 12%.
`CCC(C)(C)C(=O)C(=O)N1CCCC[C@H]1C(=O)O[C@H](CCc1ccc(OC)c(OC)c1)c1cccc(OCC(=O)NCCCCNC(=O)COc2cccc3c2C(=O)N(C2CCC(=O)NC2=O)C3=O)c1` (some centres unmarked) [dFKBP-4] showed a DC50 [5] of 2.97 nM, a Dmax [5] of 34% and an IC50 (FKBP12 (36V)) of 369 nM. For the same compound, the Dmax [6] was 21%.
`COc1ccc(CC[C@@H](OC(=O)[C@@H]2CCCCN2C(=O)Cc2ccccc2)c2cccc(OCC(=O)NCCCCNC(=O)COc3cccc4c3C(=O)N(C3CCC(=O)NC3=O)C4=O)c2)cc1OC` (some centres unmarked) [dFKBP-5] was tested, and the Dmax [5] was 11%, the IC50 (FKBP12 (36V)) was 2290 nM and the Dmax [6] was < 5%.
In the case of `O=C1CCC(N2C(=O)c3ccccc3C2=O)C(=O)N1` (centres unmarked) [thalidomide], the “BRD4 degradation by treatment alone” value (BRD4 [1]; MV4-11, 24 h) was “insufficient to induce BRD4 degradation”.
